Reference: US20180099931A1 (AbbVie S.à.r.l., priority 2016, published 2018)
Like-named read-outs stand apart in the source and are kept apart here.

Target: T1, F508delCFTR (Homo sapiens, UniProt P13569, DEL508-508)
T1 construct: expressed in transfected cells; host or cells: CFBE41o- human lung-derived epithelial cells (CFBE4lo-F508delCFTR-HRP), doxycycline-inducible
Assay: Cell Surface Expression-Horse Radish Peroxidase (CSE-HRP) Assay;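 as to Maximum % activity (with co-corrector): co-corrector and positive control are both the same reference corrector at 2 µM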;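 as to Maximum % activity (without co-corrector): percent of the 2 µM on-plate positive control corrector response above DMSO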
Format: cell-based
Details: for Maximum % activity (with co-corrector) / Emax: maximum at any tested concentration, normalized to on-plate positive control; for Emax: read-out: Maximum % activity (without co-corrector)

[1] = CSE-HRP, test compound without co-corrector, read-out: EC50 (without co-corrector)
[2] = CSE-HRP, with co-corrector (2 μM of 3-[(2R,4R)-4-({[1-(2,2-difluoro-1,3-benzodioxol-5-yl)cyclopropyl]carbonyl}amino)-7-methoxy-3,4-dihydro-2H-chromen-2-yl]benzoic acid), read-out: EC50 (with co-corrector)
[3] = CSE-HRP, with co-corrector (2 μM)
[4] = test compound without co-corrector
[5] = test compound without co-corrector, read-out: EC50 (without co-corrector)
[6] = with co-corrector (2 μM of 3-[(2R,4R)-4-({[1-(2,2-difluoro-1,3-benzodioxol-5-yl)cyclopropyl]carbonyl}amino)-7-methoxy-3,4-dihydro-2H-chromen-2-yl]benzoic acid)
[7] = with co-corrector (2 μM of 3-[(2R,4R)-4-({[1-(2,2-difluoro-1,3-benzodioxol-5-yl)cyclopropyl]carbonyl}amino)-7-methoxy-3,4-dihydro-2H-chromen-2-yl]benzoic acid), read-out: EC50 (with co-corrector)

T1 sequence (P13569 with tags, fused parts or gaps DEL508-508): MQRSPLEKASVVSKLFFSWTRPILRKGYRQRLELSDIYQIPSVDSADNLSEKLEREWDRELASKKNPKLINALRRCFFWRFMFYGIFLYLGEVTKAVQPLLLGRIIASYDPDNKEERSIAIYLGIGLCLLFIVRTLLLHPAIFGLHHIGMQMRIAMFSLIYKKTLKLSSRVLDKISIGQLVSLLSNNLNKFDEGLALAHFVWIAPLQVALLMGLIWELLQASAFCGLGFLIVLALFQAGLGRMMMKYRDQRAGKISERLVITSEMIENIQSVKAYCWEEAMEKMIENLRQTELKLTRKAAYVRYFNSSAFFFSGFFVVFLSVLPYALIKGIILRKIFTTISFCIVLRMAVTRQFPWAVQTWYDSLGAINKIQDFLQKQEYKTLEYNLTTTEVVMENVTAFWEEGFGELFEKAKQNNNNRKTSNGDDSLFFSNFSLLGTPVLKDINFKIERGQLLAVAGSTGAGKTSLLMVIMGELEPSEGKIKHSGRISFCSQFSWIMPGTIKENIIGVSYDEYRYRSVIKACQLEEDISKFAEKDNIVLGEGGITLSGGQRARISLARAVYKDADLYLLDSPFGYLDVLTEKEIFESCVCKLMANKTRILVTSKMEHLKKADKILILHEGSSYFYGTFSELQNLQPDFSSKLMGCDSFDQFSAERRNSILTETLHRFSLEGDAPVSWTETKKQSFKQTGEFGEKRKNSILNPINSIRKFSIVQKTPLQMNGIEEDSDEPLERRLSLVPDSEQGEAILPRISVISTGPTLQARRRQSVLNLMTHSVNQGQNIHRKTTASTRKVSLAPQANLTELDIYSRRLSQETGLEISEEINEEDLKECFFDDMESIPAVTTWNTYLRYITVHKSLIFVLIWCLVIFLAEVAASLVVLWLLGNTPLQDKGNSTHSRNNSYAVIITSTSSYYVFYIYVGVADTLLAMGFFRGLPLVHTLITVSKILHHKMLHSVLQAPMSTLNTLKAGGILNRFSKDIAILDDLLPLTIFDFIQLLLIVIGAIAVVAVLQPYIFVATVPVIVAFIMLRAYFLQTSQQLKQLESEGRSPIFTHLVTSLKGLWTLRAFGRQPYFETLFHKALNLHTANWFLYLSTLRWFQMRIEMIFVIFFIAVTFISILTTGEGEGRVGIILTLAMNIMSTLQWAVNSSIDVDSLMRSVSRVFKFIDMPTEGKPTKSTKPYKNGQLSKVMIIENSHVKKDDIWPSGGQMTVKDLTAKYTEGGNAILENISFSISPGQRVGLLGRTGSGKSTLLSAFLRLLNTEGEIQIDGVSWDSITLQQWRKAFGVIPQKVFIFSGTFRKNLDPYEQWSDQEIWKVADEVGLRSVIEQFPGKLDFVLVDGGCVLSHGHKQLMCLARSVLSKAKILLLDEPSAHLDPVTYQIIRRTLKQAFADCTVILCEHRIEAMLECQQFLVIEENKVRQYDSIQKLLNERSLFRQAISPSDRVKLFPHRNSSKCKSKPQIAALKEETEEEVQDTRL

Compound	EC50 [1] [nM]	EC50 [2] [nM]	Maximum % activity (with co-corrector) [3]	Emax (CSE-HRP, without co-corrector) [%]	Emax [4] [%]	EC50 [5] [nM]	Maximum % activity (with co-corrector) [6]	EC50 [7] [nM]	Maximum % activity (with co-corrector) (with co-corrector (2 μM))	Emax (without co-corrector) [%]
Cc1cc(C(F)(F)F)cc(N[C@H]2[C@H](C(C)(C)C)[C@@H](C(=O)O)N(C(=O)C3CCCCC3)[C@H]2c2ccccn2)n1 (racemic) [II-53]	1000 to 10000	1000 to 10000	++ (≥150 and <350)	< 100						
COc1ccc(C(C)(C)C)cc1CN[C@H]1[C@H](C(C)(C)C)[C@@H](C(=O)O)N(C(=O)C2=C(F)CCCC2)[C@H]1c1ccccc1 [II-411]					> 200	1000 to 10000	+++ (≥350)	< 1000		
COc1ccc(C(C)(C)C)cc1CN[C@H]1[C@H](C(C)(C)C)[C@@H](C(=O)O)N(C(=O)C2CC(C)C2)[C@H]1c1ccccc1 (stereo partly drawn) [II-306]	1000 to 10000	1000 to 10000	+++ (≥350)	> 200						
COc1ccc(C(C)(C)C)cc1CN[C@H]1[C@H](C(C)(C)C)[C@@H](C(=O)O)N(C(=O)C2CC(=O)N(C(C)C)C2)[C@H]1c1ccccc1 (stereo partly drawn) [II-238]	1000 to 10000	1000 to 10000	+++ (≥350)	100 to 200						
COc1ccc(C(C)(C)C)cc1CN[C@H]1[C@H](C(C)(C)C)[C@@H](C(=O)O)N(C(=O)c2cc(C)nc(C)c2)[C@H]1c1ccccc1 [II-197]	1000 to 10000	1000 to 10000	++ (≥150 and <350)	< 100						
COc1ccc(C(F)(F)F)cc1CN[C@@H]1[C@@H](C(C)(C)C)[C@@H](C(=O)O)N(C(=O)C2CCCCC2)[C@H]1c1ccccc1 [II-413]					< 100	1000 to 10000	++ (≥150 and <350)	1000 to 10000		
COc1ncc(N2CCCC2)cc1CN[C@H]1[C@H](C(C)(C)C)[C@@H](C(=O)O)N(C(=O)OC(C)C)[C@H]1c1cccnc1N(C)C [II-577]					100 to 200	1000 to 10000	+++ (≥350)	1000 to 10000		
CC(C)(C)[C@@H]1[C@@H](NCc2cc(Cl)ccc2OC(F)(F)F)[C@@H](c2ccccc2)N(C(=O)C2CCCCC2)[C@H]1C(=O)O (racemic) [II-75]	< 1000	1000 to 10000	++ (≥150 and <350)	< 100						
COc1ccc(C(C)(C)C)cc1CN[C@H]1[C@H](C(C)(C)C)[C@@H](C(=O)O)N(C(=O)C2CCCCC2)[C@H]1c1ccccc1C [II-576]					> 200	< 1000	+++ (≥350)	< 1000		
COc1ncc(C2CC2)cc1CN[C@H]1[C@H](C(C)(C)C)[C@@H](C(=O)O)N(C(=O)C2CCCCC2)[C@H]1c1ccccc1 [II-259]	1000 to 10000	1000 to 10000	+++ (≥350)	100 to 200						
CC(C)(C)[C@H]1[C@H](NCc2cc(Cl)ccc2O)[C@H](c2ccccc2)N(C(=O)C2CCCCC2)[C@@H]1C(=O)O [Example I-51]						> 10000		1000 to 10000	++ (≥150 and <350)	< 100
COc1ccc(Cl)cc1CN[C@@H]1[C@@H](C(C)(C)C)[C@H](C(=O)O)N(C(=O)OC(C)C)[C@@H]1c1ccccc1 (racemic) [Example I-12]						1000 to 10000		1000 to 10000	+++ (≥350)	> 200
COc1ccc(Cl)c2c1CN([C@H]1[C@H](C(C)(C)C)[C@@H](C(=O)O)N(C(=O)[C@@H]3CCCCO3)[C@H]1c1ccccc1C(C)C)C2 [Example I-308]	1000 to 10000	< 1000	+++ (≥350)	< 100						
COc1ncc(C2CCC2)cc1CN[C@H]1[C@H](C(C)(C)C)[C@@H](C(=O)O)N(C(=O)C2CCCCC2)[C@H]1c1ccccc1 [Example 16, (2S,3S,4S,5S)-3-tert-butyl-4-{[(5-cyclobutyl-2-methoxypyridin-3-yl)methyl]amino}-1-(cyclohexanecarbonyl)-5-phenylpyrrolidine-2-carboxylic acid]						< 1000		< 1000	+++ (≥350)	> 200
COc1ccc(C(F)(F)F)cc1CN[C@H]1[C@H](C(C)(C)C)[C@@H](C(=O)O)N(C(=O)C2CCCCC2)[C@H]1c1cccnc1OC [II-573]					100 to 200	1000 to 10000	+++ (≥350)	1000 to 10000		
CCCCOC(=O)N1[C@H](C(=O)O)[C@@H](C(C)(C)C)[C@H](NCc2cc(C(C)(C)C)ccc2OC)[C@@H]1c1ccccc1 [II-383]					> 200	1000 to 10000	+++ (≥350)	< 1000		
COc1nc2ccccc2cc1CN[C@H]1[C@H](C(C)(C)C)[C@@H](C(=O)O)N(C(=O)[C@@H]2CCCO2)[C@H]1c1cccnc1N(C)C [II-599]					< 100	1000 to 10000	++ (≥150 and <350)	1000 to 10000		
COc1ccc(C2CCOCC2)cc1CN[C@H]1[C@H](C(C)(C)C)[C@@H](C(=O)O)N(C(=O)C2CCCCC2)[C@H]1c1ccccc1 [II-340]					100 to 200	1000 to 10000	+++ (≥350)	1000 to 10000		
COc1nnc(C2CCC2)cc1CN[C@H]1[C@H](C(C)(C)C)[C@@H](C(=O)O)N(C(=O)C2CCCCC2)[C@H]1c1ccccc1 [II-496]					< 100	1000 to 10000	++ (≥150 and <350)	1000 to 10000		

The remaining lines, values ahead:

EC50 [1] [nM]	EC50 [2] [nM]	Maximum % activity (with co-corrector) [3]	Emax (CSE-HRP, without co-corrector) [%]	Emax [4] [%]	EC50 [5] [nM]	Maximum % activity (with co-corrector) [6]	EC50 [7] [nM]	Maximum % activity (with co-corrector) (with co-corrector (2 μM))	Emax (without co-corrector) [%]	Compound
				100 to 200	1000 to 10000		< 1000	+++ (≥350)		COc1ncc(C2CCC2)cc1CN[C@H]1[C@H](C(C)(C)C)[C@@H](C(=O)O)N(C(=O)C2CC(C)CC(C)C2)[C@H]1c1ccccc1 (stereo partly drawn) [III-207]
				< 100	> 10000	++ (≥150 and <350)	1000 to 10000			CC(C)(C)[C@@H]1[C@@H](Nc2cc(C(F)(F)F)cc[n+]2[O-])[C@@H](c2ccccc2)N(C(=O)C2CCCCC2)[C@H]1C(=O)O (racemic) [III-31]
				< 100	1000 to 10000	+++ (≥350)	1000 to 10000			COc1ccc(C(F)(F)F)cc1CN[C@@H]1[C@@H](C(C)(C)C)[C@H](C(=O)O)N(C(=O)C2CCCCC2)[C@@H]1c1ccccn1 (racemic) [III-60]
				< 100	1000 to 10000		1000 to 10000	++ (≥150 and <350)		COc1cccc([C@H]2[C@@H](Nc3cc(C(F)(F)F)cc(C)n3)[C@H](C(C)(C)C)[C@@H](C(=O)O)N2C(=O)C2CCCCC2)n1 (racemic) [III-97]
				< 100	> 10000	++ (≥150 and <350)	1000 to 10000			CC(C)(C)[C@@H]1[C@@H](NCc2cc(C(F)(F)F)ccc2OCCCF)[C@@H](c2ccccc2)N(C(=O)C2CCCCC2)[C@H]1C(=O)O (racemic) [III-85]
				100 to 200	1000 to 10000	+++ (≥350)	1000 to 10000			COc1ccc(C(F)(F)F)cc1CN[C@@H]1[C@@H](C(C)(C)C)[C@H](C(=O)O)N(C(=O)C2CCCCC2)[C@@H]1c1cccnc1N(C)C (racemic) [III-41]
				< 100	> 10000	+ (<150)	> 10000			COc1cccc(CN[C@@H]2[C@@H](C(C)(C)C)[C@H](C(=O)O)N(C(=O)C3CCCCC3)[C@@H]2c2ccccc2)c1OC (racemic) [III-13]
				< 100	> 10000	+ (<150)	> 10000			CC(C)(C)[C@@H]1[C@@H](NCc2ccccc2C#N)[C@@H](c2ccccc2)N(C(=O)C2CCCCC2)[C@H]1C(=O)O (racemic) [III-83]
